These are literature values, as cited in paper PMC6544043 (ACS infectious diseases, 2019).

The series has as its target adenosine/guanosine preferring nucleoside ribohydrolase (AGNH) (Trichomonas vaginalis, UniProt A2EYV3). The conditions noted are these: read-out: inhibitor potency; cited from earlier work.

As to `OC[C@H]1O[C@@H](n2cnc3c(NC4CCCC4)nc(Cl)nc32)[C@H](O)[C@@H]1O` [2-chloro-N(6)-cyclopenty-ladenosine], the IC50 was 9 µM.
